Key:
[1] = target: recombinant human FLAP protein (Homo sapiens (Human), UniProt P20292); assay: FLAP binding assay (Scintillation Proximity Assay, displacement of [125I]L-691,831); conditions: read-out: FLAP SPA IC50
Procedure, shortened: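 Scintillation proximity displacement of an iodinated (125I) FLAP inhibitor by test compounds, using 100,000×g membrane fraction from lysed cells. Final beads 200 μg/well and protein 5 μg/well; plates shaken 2 h before reading.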

[2] = test system: synthesis of LTB4 in human whole blood; assay: Human whole blood LTB4 production inhibition assay; format: cell-based; conditions: calcimycin stimulated, read-out: hWB LTB4 IC50
Procedure, shortened: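 LTB4 levels in plasma were measured by antibody-based HTRF after heparinized human whole blood, pretreated with compound (15 min, 37° C), was challenged with 20 μM calcimycin for 30 min at 37° C.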

Sequence of recombinant human FLAP protein (P20292 whole entry): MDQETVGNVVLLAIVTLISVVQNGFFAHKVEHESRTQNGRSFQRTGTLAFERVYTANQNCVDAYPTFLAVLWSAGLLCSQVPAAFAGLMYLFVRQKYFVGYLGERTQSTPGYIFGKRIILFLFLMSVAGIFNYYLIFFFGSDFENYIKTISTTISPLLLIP

Row | Compound | IC50 [1] | IC50 [2]
1 | Nc1ncc(-c2ccc(C3(c4noc(-c5cnn(C(F)F)c5)n4)CCC3)cn2)cn1 [Example 66, 5-[5-(1-{5-[1-(difluoromethyl)-1H-pyrazol-4-yl]-1,2,4-oxadiazol-3-yl}cyclobutyl)pyridin-2-yl]pyrimidin-2-amine] | 7.4 nM | 200 nM
2 | Nc1ncc(-c2ccc(C3(c4noc(-c5cnn(CCF)c5)n4)CCC3)cn2)cn1 [Example 67, 5-[5-(1-{5-[1-(2-fluoroethyl)-1H-pyrazol-4-yl]-1,2,4-oxadiazol-3-yl}cyclobutyl)pyridin-2-yl]pyrimidin-2-amine] | 9.5 nM | 69 nM
3 | Nc1ncc(-c2ccc(C3(c4noc(-c5cnn(CC(F)F)c5)n4)CCC3)cn2)cn1 [Example 68, 5-[5-(1-{5-[1-(2,2-difluoroethyl)-1H-pyrazol-4-yl]-1,2,4-oxadiazol-3-yl}cyclobutyl)pyridin-2-yl]pyrimidin-2-amine] | 6.1 nM | 160 nM
4 | Nc1ncc(-c2ccc(C3(c4noc(-c5cnn(CC(F)(F)F)c5)n4)CCC3)cn2)cn1 [Example 69, 5-[5-(1-{5-[1-(2,2,2-trifluoroethyl)-1H-pyrazol-4-yl]-1,2,4-oxadiazol-3-yl}cyclobutyl)pyridin-2-yl]pyrimidin-2-amine] | 7.6 nM | 170 nM
5 | NC(=O)Cn1cc(-c2nc(C3(c4ccc(-c5cnc(N)nc5)nc4)CCC3)no2)cn1 [Example 70, 2-[4-(3-{1-[6-(2-aminopyrimidin-5-yl)pyridin-3-yl]cyclobutyl}-1,2,4-oxadiazol-5-yl)-1H-pyrazol-1-yl]acetamide] | 150 nM | 2100 nM
6 | CS(=O)(=O)Cn1cc(-c2nc(C3(c4ccc(-c5cnc(N)nc5)nc4)CCC3)no2)cn1 [Example 71, 5-{5-[1-(5-{1-[(methylsulfonyl)methyl]-1H-pyrazol-4-yl}-1,2,4-oxadiazol-3-yl)cyclobutyl]pyridin-2-yl}pyrimidin-2-amine] | 58 nM | 390 nM
7 | Nc1ncc(-c2ccc(C3(c4noc(-c5cccnc5)n4)CCOCC3)cn2)cn1 [Example 72, 5-(5-{4-[5-(pyridin-3-yl)-1,2,4-oxadiazol-3-yl]tetrahydro-2H-pyran-4-yl}pyridin-2-yl)pyrimidin-2-amine] | 610 nM | 2300 nM
8 | Nc1ncc(-c2ccc(C3(c4noc(-c5cccnc5)n4)CCC3)cn2)cn1 [Example 73, 5-{5-[1-(5-Pyridin-3-yl-1,2,4-oxadiazol-3-yl)-cyclobutyl]-pyridin-2-yl}-pyrimidin-2-ylamine] | 25 nM | 460 nM
9 | Cc1ccc(-c2nc(C3(c4ccc(-c5cnc(N)nc5)nc4)CCC3)no2)cn1 [Example 74, 5-(5-{1-[5-(6-methylpyridin-3-yl)-1,2,4-oxadiazol-3-yl]cyclobutyl}pyridin-2-yl)pyrimidin-2-amine] | 4.5 nM | 210 nM
10 | Nc1ncc(-c2ccc(C3(c4noc(-c5c[nH]cn5)n4)CCC3)cn2)cn1 [Example 75, 5-(5-{1-[5-(1H-imidazol-4-yl)-1,2,4-oxadiazol-3-yl]cyclobutyl}pyridin-2-yl)pyrimidin-2-amine] | 19 nM | 580 nM
11 | Nc1ncc(-c2ccc(C3(c4noc(N5CCCC5)n4)CCC3)cn2)cn1 [Example 76, 5-(5-{1-[5-(pyrrolidin-1-yl)-1,2,4-oxadiazol-3-yl]cyclobutyl}pyridin-2-yl)pyrimidin-2-amine] | 92 nM | 920 nM
12 | Cn1cccc(-c2nc(C3(c4ccc(-c5cnc(N)nc5)nc4)CCC3)no2)c1=O [Example 77, 3-(3-{1-[6-(2-aminopyrimidin-5-yl)pyridin-3-yl]cyclobutyl}-1,2,4-oxadiazol-5-yl)-1-methylpyridin-2(1H)-one] | 51 nM | 490 nM
13 | Cc1n[nH]cc1-c1nc(C2(c3ccc(-c4cnc(N)nc4)nc3)CCC2)no1 [Example 78, 5-(5-{1-[5-(3-methyl-1H-pyrazol-4-yl)-1,2,4-oxadiazol-3-yl]cyclobutyl}pyridin-2-yl)pyrimidin-2-amine] | 4.7 nM | 220 nM
14 | Cc1cc(-c2nc(C3(c4ccc(-c5cnc(N)nc5)nc4)CCC3)no2)[nH]n1 [Example 80, 5-(5-{1-[5-(3-methyl-1H-pyrazol-5-yl)-1,2,4-oxadiazol-3-yl]cyclobutyl}pyridin-2-yl)pyrimidin-2-amine] | 5.5 nM | 160 nM
15 | COC(=O)c1ccc(-c2nc(C3(c4ccc(-c5cnc(N)nc5)nc4)CCC3)no2)cn1 [Example 81, methyl 5-(3-{1-[6-(2-aminopyrimidin-5-yl)pyridin-3-yl]cyclobutyl}-1,2,4-oxadiazol-5-yl)pyridine-2-carboxylate] | 25 nM | 790 nM
16 | CC(C)(O)c1ccc(-c2nc(C3(c4ccc(-c5cnc(N)nc5)nc4)CCC3)no2)cn1 [Example 82, 2-[5-(3-{1-[6-(2-aminopyrimidin-5-yl)pyridin-3-yl]cyclobutyl}-1,2,4-oxadiazol-5-yl)pyridin-2-yl]propan-2-ol] | 17 nM | 480 nM

Row | Compound | IC50 [1] | IC50 [2]
17 | N#Cc1ccc(-c2nc(C3(c4ccc(-c5cnc(N)nc5)nc4)CCC3)no2)cn1 [Example 83, 5-(3-{1-[6-(2-aminopyrimidin-5-yl)pyridin-3-yl]cyclobutyl}-1,2,4-oxadiazol-5-yl)pyridine-2-carbonitrile] | 52 nM | 410 nM
18 | Nc1ncc(-c2ccc(C3(c4noc(-c5cccnc5Cl)n4)CCC3)cn2)cn1 [Example 84, 5-(5-{1-[5-(2-chloropyridin-3-yl)-1,2,4-oxadiazol-3-yl]cyclobutyl}pyridin-2-yl)pyrimidin-2-amine] | 4.1 nM | 280 nM
19 | Cc1ncccc1-c1nc(C2(c3ccc(-c4cnc(N)nc4)nc3)CCC2)no1 [Example 85, 5-(5-{1-[5-(2-methylpyridin-3-yl)-1,2,4-oxadiazol-3-yl]cyclobutyl}pyridin-2-yl)pyrimidin-2-amine] | 21 nM | 1000 nM
20 | COc1ccncc1-c1nc(C2(c3ccc(-c4cnc(N)nc4)nc3)CCC2)no1 [Example 86, 5-(5-{1-[5-(4-methoxypyridin-3-yl)-1,2,4-oxadiazol-3-yl]cyclobutyl}pyridin-2-yl)pyrimidin-2-amine] | 18 nM | 1100 nM
21 | Nc1ncc(-c2ccc(C3(c4noc(-c5ccncc5)n4)CCC3)cn2)cn1 [Example 87, 5-(5-{1-[5-(pyridin-4-yl)-1,2,4-oxadiazol-3-yl]cyclobutyl}pyridin-2-yl)pyrimidin-2-amine] | 55 nM | 1000 nM
22 | Nc1ncc(-c2ccc(C3(c4noc(-c5cnccc5Cl)n4)CCC3)cn2)cn1 [Example 88, 5-(5-{1-[5-(4-chloropyridin-3-yl)-1,2,4-oxadiazol-3-yl]cyclobutyl}pyridin-2-yl)pyrimidin-2-amine] | 7.3 nM | 490 nM
23 | Nc1ncc(-c2ccc(C3(c4noc(-c5ccc(N6CCOCC6)nc5)n4)CCC3)cn2)cn1 [Example 89, 5-[5-(1-{5-[6-(morpholin-4-yl)pyridin-3-yl]-1,2,4-oxadiazol-3-yl}cyclobutyl)pyridin-2-yl]pyrimidin-2-amine] | 2.7 nM | 180 nM
24 | Nc1ncc(-c2ccc(C3(c4noc(-c5cn[nH]c5)n4)CCC3)cn2)cn1 [Example 90, 5-(5-{1-[5-(1H-pyrazol-4-yl)-1,2,4-oxadiazol-3-yl]cyclobutyl}pyridin-2-yl)pyrimidin-2-amine] | 7 nM | 140 nM
25 | Nc1ncc(-c2ccc(C3(c4noc(-c5ccnc(O)c5)n4)CCC3)cn2)cn1 [Example 91, 4-(3-{1-[6-(2-aminopyrimidin-5-yl)pyridin-3-yl]cyclobutyl}-1,2,4-oxadiazol-5-yl)pyridin-2-ol] | 24 nM | 330 nM
26 | Nc1ncc(-c2ccc(C3(c4noc(-c5ccncn5)n4)CCC3)cn2)cn1 [Example 92, 5-(5-{1-[5-(pyrimidin-4-yl)-1,2,4-oxadiazol-3-yl]cyclobutyl}pyridin-2-yl)pyrimidin-2-amine] | 130 nM | 2200 nM
27 | COc1cc(-c2nc(C3(c4ccc(-c5cnc(N)nc5)nc4)CCC3)no2)ccn1 [Example 93, 5-(5-{1-[5-(2-methoxypyridin-4-yl)-1,2,4-oxadiazol-3-yl]cyclobutyl}pyridin-2-yl)pyrimidin-2-amine] | 9.6 nM | 400 nM
28 | Cc1nc(C)c(-c2nc(C3(c4ccc(-c5cnc(N)nc5)nc4)CCC3)no2)s1 [Example 94, 5-(5-{1-[5-(2,4-dimethyl-1,3-thiazol-5-yl)-1,2,4-oxadiazol-3-yl]cyclobutyl}pyridin-2-yl)pyrimidin-2-amine] | 8.1 nM | 650 nM
29 | Nc1ncc(-c2ccc(C3(c4noc(-c5ccc[nH]c5=O)n4)CCC3)cn2)cn1 [Example 95, 3-(3-{1-[6-(2-aminopyrimidin-5-yl)pyridin-3-yl]cyclobutyl}-1,2,4-oxadiazol-5-yl)pyridin-2(1H)-one] | 29 nM | > 5000 nM
30 | COc1ccc(-c2nc(C3(c4ccc(-c5cnc(N)nc5)nc4)CCC3)no2)c(OC)n1 [Example 96, 5-(5-{1-[5-(2,6-dimethoxypyridin-3-yl)-1,2,4-oxadiazol-3-yl]cyclobutyl}pyridin-2-yl)pyrimidin-2-amine] | 7.3 nM | 1100 nM
31 | Cc1ccc(-c2nc(C3(c4ccc(-c5cnc(N)nc5)nc4)CCC3)no2)c(O)n1 [Example 97, 3-(3-{1-[6-(2-aminopyrimidin-5-yl)pyridin-3-yl]cyclobutyl}-1,2,4-oxadiazol-5-yl)-6-methylpyridin-2-ol] | 19 nM | > 5000 nM
32 | Nc1ncc(-c2ccc(C3(c4noc(-c5cnco5)n4)CCC3)cn2)cn1 [Example 98, 5-(5-{1-[5-(1,3-oxazol-5-yl)-1,2,4-oxadiazol-3-yl]cyclobutyl}pyridin-2-yl)pyrimidin-2-amine] | 110 nM | > 5000 nM
